Experimental data reported in ChEMBL document CHEMBL3217501, “Synthesis and biological evaluation of tetrazole containing compounds as possible anticancer agents” (Medchemcomm, 2011).
Calls of active or inactive are those of the source. The calls are words filed in the database; no cut-off is given here.

Key:
[1] = test system: SK-N-SH; assay: Cytotoxicity against human SK-N-SH cells assessed as growth inhibition after 48 hrs by SRB assay; assay type: functional, cell-based
[2] = test system: A549; assay: Cytotoxicity against human A549 cells assessed as growth inhibition after 48 hrs by SRB assay; assay type: functional, cell-based; conditions: A549, 48 h
[3] = test system: DU-145; assay: Cytotoxicity against human DU145 cells assessed as growth inhibition after 48 hrs by SRB assay; assay type: functional, cell-based; conditions: DU-145, 48 h
[4] = test system: MDA-MB-231; assay: Cytotoxicity against human MDA-MB-231 cells assessed as growth inhibition after 48 hrs by SRB assay; assay type: functional, cell-based; conditions: MDA-MB-231, 48 h
[5] = test system: HepG2; assay: Cytotoxicity against human HepG2 cells assessed as growth inhibition after 48 hrs by SRB assay; assay type: functional, cell-based; conditions: HepG2, 48 h
[6] = test system: Calf thymus DNA; assay: Binding affinity to calf thymus DNA assessed as compound-DNA complex formation by UV-Vis absorption spectroscopic analysis; assay type: nucleic-acid assay; conditions: Bos taurus
[7] = test system: Calf thymus DNA; assay: Binding affinity to calf thymus DNA by fluorescence spectroscopic analysis; assay type: nucleic-acid assay; conditions: Bos taurus

Row | Kb [6] [×10⁵ /M] | Activity [7] | Compound | IC50 [1] [µM] | IC50 [2] [µM] | IC50 [3] [µM] | IC50 [4] [µM] | IC50 [5] [µM]
1 |  |  | COc1ccc(/C=C(\C#N)Cn2cnnn2)cc1 | 64.2 | 23.8 | 19.4 | 20.3 | 27.4
2 |  |  | N#C/C(=C\c1ccc(C(F)(F)F)cc1)Cn1cnnn1 | 11.8 | 3.51 | 5.92 | 8.7 | 1.65
3 |  |  | COc1cc([C@@H]2c3cc4c(cc3[C@H](O)[C@H]3COC(=O)[C@H]23)OCO4)cc(OC)c1OC [PODOFILOX] | < 0.1 | < 0.1 | < 0.1 | < 0.1 | < 0.1
4 |  |  | COC(=O)/C(=C/c1ccc(F)cc1)Cn1cnnn1 | 18.3 | 6.9 | 8.57 | 15.9 | 12.1
5 |  |  | Cc1ccc(/C=C(\C#N)Cn2cnnn2)cc1 | 20.1 | 7.95 | 7.3 | 25.7 | 6.56
6 |  |  | COC(=O)/C(=C/c1ccc(C)cc1)Cn1cnnn1 | 71.7 | 16 | 8.42 | 62.6 | 10.7
7 |  |  | CCOC(=O)/C(=C/c1ccc(Cl)cc1)Cn1cnnn1 | 28.2 | 3.18 | 8.44 | 23.9 | 3
8 |  |  | Cc1nnnn1C/C(C#N)=C/c1ccc(F)cc1 | 20.2 | 6.4 | 7.19 | 28.8 | 7.29
9 |  |  | COC(=O)/C(=C/c1ccccc1)Cn1cnnn1 | 31.6 | 7.91 | 9.02 | 16.4 | 10.7
10 |  |  | COC(=O)Nc1nc2cc(C(=O)c3cccs3)ccc2[nH]1 [NOCODAZOLE] | < 0.1 | < 0.1 | < 0.1 | < 0.1 | < 0.1
11 |  |  | COC(=O)/C(=C/c1ccccc1[N+](=O)[O-])Cn1cnnn1 | 19.8 | 6.88 | 10.2 | 43.7 | 4.33
12 | 0.75 | Active | Cc1nnnn1C/C(C#N)=C/c1cccc2ccccc12 | 13.7 | 2.95 | 5.76 | 14.1 | 2.6
13 |  |  | CCOC(=O)/C(=C/c1ccccc1Br)Cn1cnnn1 | 16.3 | 5.94 | 7.79 | 14.8 | 3.33
14 |  |  | CCOC(=O)/C(=C/c1ccc(Br)cc1)Cn1cnnn1 | 27.3 | 4.78 | 5.5 | 18.9 | 4.89
15 |  |  | N#C/C(=C\c1ccccc1)Cn1cnnn1 | 23.3 | 9.99 | 9.45 | 18.4 | 5.83
16 |  |  | COC(=O)/C(=C/c1ccc([N+](=O)[O-])cc1)Cn1cnnn1 | 22.3 | 2.84 | 5.5 | 9.14 | 2.07
17 |  |  | N#C/C(=C\c1cccc2ccccc12)Cn1cnnn1 | 16.9 | 5.7 | 7.36 | 31.4 | 7.11
18 |  |  | COC(=O)/C(=C/c1ccc(OC)cc1)Cn1cnnn1 | 7.9 | 3.83 | 5.6 | 21 | 6.65
